Assay results taken from patent publication US10501425B2, “Microbiocidal oxadiazole derivatives” (SYNGENTA PARTICIPATIONS AG, priority 2015, dated 2019).

Key:
[1] = test system: Puccinia recondita f. Sp. Tritici; assay: Puccinia recondita f. sp. tritici / wheat / leaf disc preventative (brown rust); format: in vivo; settings: foliar, 200 ppm in the applied formulation, wheat leaf segments cv. Kanzler, preventative (inoculated 1 day after application), compared to untreated, read-out: disease control
Procedure, shortened: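 Single evaluation 7–9 d after spraying: % disease control compared with untreated leaf segments. Protocol: cv. Kanzler segments, preventative spray at 200 ppm, spore inoculation at day 1, 19° C., 75% rh, 12 h light/12 h dark.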

[2] = test system: Puccinia recondita f. Sp. Tritici; assay: Puccinia recondita f. sp. tritici / wheat / leaf disc curative (brown rust); format: in vivo; settings: foliar, 24 h, 200 ppm in the applied formulation, wheat leaf segments cv. Kanzler, curative (applied 1 day after inoculation), compared to untreated, read-out: disease control
Procedure, shortened: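 Compound applied 1 day after spore inoculation of wheat cv. Kanzler leaf segments on agar (dark, 19 °C, 75% RH before treatment). After further incubation under 12 h light/12 h dark at 19 °C and 75% RH, disease control relative to untreated segments rated 6–8 days post-application.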

Phakopsora pachyrhizi = Phakopsora pachyrhizi / soybean / leaf disc preventative (Asian soybean rust); format: in vivo; settings: foliar, 200 ppm in the applied formulation, soybean leaf disks, compared to untreated, read-out: disease control
Procedure: Leaf disks or leaf segments of various plant species are cut from plants grown in a greenhouse. The cut leaf disks or segments are placed in multiwell plates (24-well format) onto water agar. The leaf disks are sprayed with a test solution before (preventative) or after (curative) inoculation. Compounds to be tested are prepared as DMSO solutions (max. 10 mg/ml) which are diluted to the appropriate concentration with 0.025% Tween20 just before spraying. The inoculated leaf disks or segments are incubated under defined conditions (temperature, relative humidity, light, etc.) according to the respective test system. A single evaluation of disease level is carried out 3 to 14 days after inoculation, depending on the pathosystem. Percent disease control relative to the untreated check leaf disks or segments is then calculated.
Soybean leaf disks are placed on water agar in multiwell plates (24-well format) and sprayed with the formulated test compound diluted in water. One day after application leaf discs are inoculated by spraying a spore suspension on the lower leaf surface. After an incubation period in a climate cabinet of 24-36 hours in darkness at 20° C. and 75% rh leaf disc are kept at 20° C. with 12 h light/day and 75% rh. The activity of a compound is assessed as percent disease control compared to untreated when an appropriate level of disease damage appears in untreated check leaf disks (12 to 14 days after application).
The following compounds at 200 ppm in the applied formulation give at least 80% disease control in this test when compared to untreated control leaf disks under the same conditions, which show extensive disease development.

[3] = test system: Glomerella lacenarium (Colletotrichum lagenarium); assay: Glomerella lagenarium liquid culture / cucumber / preventative (anthracnose); format: cell-based; settings: Colletotrichum orbiculare; 20 ppm in the applied formulation; liquid culture (PDB), growth inhibition measured photometrically 3 to 4 days after application; compared to untreated; read-out: disease control
Procedure, shortened: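 Conidia from cryogenic storage were mixed into potato dextrose broth. This was added to compound diluted from DMSO into 0.025% Tween20, tested at 20 ppm. Plates were incubated in the dark at 24 °C and 96% relative humidity, and growth was read photometrically after 2–7 days as % activity versus untreated check.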

COCC(=O)NCCc1ccc(-c2noc(C(F)(F)F)n2)cc1 [Compound 1.86, 2-methoxy-N-[2-[4-[5-(trifluoromethyl)-1,2,4-oxadiazol-3-yl]phenyl]ethyl]acetamide]
≥ 80%: pest or weed control at 200 ppm [1] | pest or weed control at 200 ppm [2] | pest or weed control at 200 ppm (Phakopsora pachyrhizi) | inhibition of growth at 20 ppm [3]

CCONC(=O)NCc1ccc(-c2noc(C(F)(F)F)n2)cc1 [Compound 3.14, 1-ethoxy-3-[[4-[5-(trifluoromethyl)-1,2,4-oxadiazol-3-yl]phenyl]methyl]urea]
≥ 80%: pest or weed control at 200 ppm [1] | pest or weed control at 200 ppm [2] | pest or weed control at 200 ppm (Phakopsora pachyrhizi) | inhibition of growth at 20 ppm [3]

CCCC(=O)NCc1ccc(-c2noc(C(F)(F)F)n2)cc1 [Compound 1.10, N-[[4-[5-(trifluoromethyl)-1,2,4-oxadiazol-3-yl]phenyl]methyl]butanamide]
≥ 80%: pest or weed control at 200 ppm [1] | pest or weed control at 200 ppm [2] | pest or weed control at 200 ppm (Phakopsora pachyrhizi) | inhibition of growth at 20 ppm [3]

CC=CCC(=O)NCc1ccc(-c2noc(C(F)(F)F)n2)cc1 [Compound 1.14, N-[[4-[5-(trifluoromethyl)-1,2,4-oxadiazol-3-yl]phenyl]methyl]pent-3-enamide]
≥ 80%: pest or weed control at 200 ppm [1] | pest or weed control at 200 ppm [2] | pest or weed control at 200 ppm (Phakopsora pachyrhizi) | inhibition of growth at 20 ppm [3]

CC(=O)CC(C)C(=O)NCc1ccc(-c2noc(C(F)(F)F)n2)cc1 (centres unmarked) [Compound 1.9, 2-methyl-4-oxo-N-[[4-[5-(trifluoromethyl)-1,2,4-oxadiazol-3-yl]phenyl]methyl]pentanamide]
≥ 80%: pest or weed control at 200 ppm [1] | pest or weed control at 200 ppm [2] | pest or weed control at 200 ppm (Phakopsora pachyrhizi) | inhibition of growth at 20 ppm [3]

C=CCCC(=O)NCc1ccc(-c2noc(C(F)(F)F)n2)cc1 [Compound 1.7, N-[[4-[5-(trifluoromethyl)-1,2,4-oxadiazol-3-yl]phenyl]methyl]pent-4-enamide]
≥ 80%: pest or weed control at 200 ppm [1] | pest or weed control at 200 ppm [2] | pest or weed control at 200 ppm (Phakopsora pachyrhizi) | inhibition of growth at 20 ppm [3]

CC(=O)NCc1ccc(-c2noc(C(F)(F)F)n2)cc1F [Compound 1.48, N-[[2-fluoro-4-[5-(trifluoromethyl)-1,2,4-oxadiazol-3-yl]phenyl]methyl]acetamide]
≥ 80%: pest or weed control at 200 ppm [1] | pest or weed control at 200 ppm [2] | pest or weed control at 200 ppm (Phakopsora pachyrhizi) | inhibition of growth at 20 ppm [3]

N#CCC(=O)NCCc1ccc(-c2noc(C(F)(F)F)n2)cc1 [Compound 1.90, 2-cyano-N-[2-[4-[5-(trifluoromethyl)-1,2,4-oxadiazol-3-yl]phenyl]ethyl]acetamide]
≥ 80%: pest or weed control at 200 ppm [1] | pest or weed control at 200 ppm [2] | pest or weed control at 200 ppm (Phakopsora pachyrhizi) | inhibition of growth at 20 ppm [3]

CCC(C)C(=O)NCCc1ccc(-c2noc(C(F)(F)F)n2)cc1 (centres unmarked) [Compound 1.87, 2-methyl-N-[2-[4-[5-(trifluoromethyl)-1,2,4-oxadiazol-3-yl]phenyl]ethyl]butanamide]
≥ 80%: pest or weed control at 200 ppm [1] | pest or weed control at 200 ppm [2] | pest or weed control at 200 ppm (Phakopsora pachyrhizi) | inhibition of growth at 20 ppm [3]

COCC(=O)NCc1ccc(-c2noc(C(F)(F)F)n2)c(F)c1F [Compound 1.56, N-[[2,3-difluoro-4-[5-(trifluoromethyl)-1,2,4-oxadiazol-3-yl]phenyl]methyl]-2-methoxy-acetamide]
≥ 80%: pest or weed control at 200 ppm [1] | pest or weed control at 200 ppm [2] | pest or weed control at 200 ppm (Phakopsora pachyrhizi) | inhibition of growth at 20 ppm [3]

CC(C)C(=O)NCc1ccc(-c2noc(C(F)(F)F)n2)cc1 [Compound 1.6, 2-methyl-N-[[4-[5-(trifluoromethyl)-1,2,4-oxadiazol-3-yl]phenyl]methyl]propanamide]
≥ 80%: pest or weed control at 200 ppm [1] | pest or weed control at 200 ppm [2] | pest or weed control at 200 ppm (Phakopsora pachyrhizi) | inhibition of growth at 20 ppm [3]

CC(C)C(=O)NCc1ccc(-c2noc(C(F)(F)F)n2)c(F)c1F [Compound 1.49, N-[[2,3-difluoro-4-[5-(trifluoromethyl)-1,2,4-oxadiazol-3-yl]phenyl]methyl]-2-methyl-propanamide]
≥ 80%: pest or weed control at 200 ppm [1] | pest or weed control at 200 ppm [2] | pest or weed control at 200 ppm (Phakopsora pachyrhizi) | inhibition of growth at 20 ppm [3]

COCC(=O)NCc1ccc(-c2noc(C(F)(F)F)n2)c(F)c1 [Compound 1.80]
≥ 80%: pest or weed control at 200 ppm [1] | pest or weed control at 200 ppm [2] | pest or weed control at 200 ppm (Phakopsora pachyrhizi) | inhibition of growth at 20 ppm [3]

CCNC(=O)NCc1ccc(-c2noc(C(F)(F)F)n2)cc1 [Compound 3.10, 1-ethyl-3-[[4-[5-(trifluoromethyl)-1,2,4-oxadiazol-3-yl]phenyl]methyl]urea]
≥ 80%: pest or weed control at 200 ppm [1] | pest or weed control at 200 ppm [2] | pest or weed control at 200 ppm (Phakopsora pachyrhizi) | inhibition of growth at 20 ppm [3]

O=C(NCc1ccc(-c2noc(C(F)(F)F)n2)cc1)OCCCCl [Compound 2.16, 3-chloropropyl N-[[4-[5-(trifluoromethyl)-1,2,4-oxadiazol-3-yl]phenyl]methyl]carbamate]
≥ 80%: pest or weed control at 200 ppm [1] | pest or weed control at 200 ppm [2] | pest or weed control at 200 ppm (Phakopsora pachyrhizi) | inhibition of growth at 20 ppm [3]

CCC(C)C(=O)NCc1ccc(-c2noc(C(F)(F)F)n2)c(F)c1 (centres unmarked) [Compound 1.39, N-[[3-fluoro-4-[5-(trifluoromethyl)-1,2,4-oxadiazol-3-yl]phenyl]methyl]-2-methyl-butanamide]
≥ 80%: pest or weed control at 200 ppm [1] | pest or weed control at 200 ppm [2] | pest or weed control at 200 ppm (Phakopsora pachyrhizi) | inhibition of growth at 20 ppm [3]

CC(C)NC(=O)NCc1ccc(-c2noc(C(F)(F)F)n2)cc1 [Compound 3.9, 1-isopropyl-3-[[4-[5-(trifluoromethyl)-1,2,4-oxadiazol-3-yl]phenyl]methyl]urea]
≥ 80%: pest or weed control at 200 ppm [1] | pest or weed control at 200 ppm [2] | pest or weed control at 200 ppm (Phakopsora pachyrhizi) | inhibition of growth at 20 ppm [3]

CCCC(C)(C)C(=O)NCc1ccc(-c2noc(C(F)(F)F)n2)cc1 [Compound 1.4, 2,2-dimethyl-N-[[4-[5-(trifluoromethyl)-1,2,4-oxadiazol-3-yl]phenyl]methyl]pentanamide]
≥ 80%: pest or weed control at 200 ppm [1] | pest or weed control at 200 ppm [2] | pest or weed control at 200 ppm (Phakopsora pachyrhizi) | inhibition of growth at 20 ppm [3]

CCCC(=O)NCc1ccc(-c2noc(C(F)(F)F)n2)cc1F [Compound 1.36, N-[[2-fluoro-4-[5-(trifluoromethyl)-1,2,4-oxadiazol-3-yl]phenyl]methyl]butanamide]
≥ 80%: pest or weed control at 200 ppm [1] | pest or weed control at 200 ppm [2] | pest or weed control at 200 ppm (Phakopsora pachyrhizi) | inhibition of growth at 20 ppm [3]

CC(C)OC(=O)NCc1ccc(-c2noc(C(F)(F)F)n2)cc1 [Compound 2.14, isopropyl N-[[4-[5-(trifluoromethyl)-1,2,4-oxadiazol-3-yl]phenyl]methyl]carbamate]
≥ 80%: pest or weed control at 200 ppm [1] | pest or weed control at 200 ppm [2] | pest or weed control at 200 ppm (Phakopsora pachyrhizi) | inhibition of growth at 20 ppm [3]
